The source of these data is patent publication US7582655B2, “Antineoplastic compounds” (University of Saskatchewan, priority 2005, dated 2009).

A short description of data set [1]: in vitro. The conditions noted are these: human.
Data set [2] has as its system murine L-5178 lymphoma cells transfected with the human MDR1 gene. Nature of the data set: MDR reversal, rhodamine 123 fluorescence activity ratio. The conditions noted are these: FAR >1 indicates MDR reversal; for FAR value 4 μg/ml: compound 4 μg/ml; for FAR value 40 μg/ml: compound 40 μg/ml. The protocol: A solution of the test compound (2 mg/ml, 10 μl) in dimethylsulfoxide was added to aliquots of the cell suspension and incubated at room temperature for 10 minutes. […] The cells were washed twice and resuspended in PBS (pH 7.4) after which the fluorescence was measured using a Beckton Dickinson FACScan instrument. The fluorescence of the cells was measured in treated MDR cells (F1), untreated MDR cells (F2), treated parental cells (F3) […] were obtained from the following equation, viz (F1/F2)/(F3/F4).

Data set [3] has as its system human squamous cell carcinomas HSC-2. The data set can be described thus: Cytotoxicity CC50, MTT assay, HSC-2. The conditions noted are these: Homo sapiens, HSC-2, 24 h, read-out: CC50(μM) HSC-2. A digest of the protocol: (§1)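 Tumour cells and normal oral cells (HGF, HPC, HPLF; 3-7 population doublings) exposed to graded compound concentrations for 24 h. Viability by MTT absorbance at 540 nm, or by trypan blue exclusion with haemocytometer counting for HL-60; CC50 derived from dose-response curves.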

Data set [4] in a line: in vitro. The conditions noted are these: human. This is another data set of the same source.
The test system of data set [5] is human promyelocytic leukemia HL-60. Nature of the data set: Cytotoxicity CC50, trypan blue exclusion, HL-60. The conditions noted are these: Homo sapiens, HL-60, 24 h, read-out: CC50(μM) HL-60. The method in brief:
as §1

Data set [6] relates to HGF, HPC and HPLF cells versus HSC-2, HSC-4 and HL-60 neoplasms. Nature of the data set: Selectivity index, normal versus malignant cells. The conditions noted are these: average CC50 of HGF, HPLF divided by average CC50 of HSC-2, HSC-4, HL-60. In kind it is cell-based, human. On the procedure: In addition, the compounds were evaluated against human squamous cell carcinomas (HSC-2 and HSC-4) and human promyelocytic leukemia neoplasms (HL-60) and compared with normal cells, i.e. human gingival fibroblasts (HGF), human pulp cells (HPC) and human periodontal ligament fibroblasts (HPLF).
MTT stands for 3-(4,5-dimethylthiazol-2-yl)-2,5-diphenyltetrazolium bromide). The cells were incubated with varying concentrations of the compounds along with untreated cells for 24 h and the absorbance at 540 nm measured. In the case of the HL-60 assay, the trypan blue exclusion method was followed and cell viability was determined using a haemocytometer. The CC50 values were obtained from dose-response curves (Sakagami, H.; Satoh, K.; Ohata, H.; Takahashi, H.; Yoshida, H.; Iida, M.; Kuribayashi, N.; Sakagami, T.; Momose, K.; Takeda, M. Anticancer Res. 1996, 16, 2635-2644). The general methods used in culturing the cells employed in these cytotoxicity experiments have been described previously (Kawase, M.; Sakagami, H.; Motohashi, N.; Hauer, H.; Chatterjee, S. S.; Spengler, G.; Vigyikanne, A. V.; Molnár, A.; Molnár, J. In Vivo 2005, 19, 705-712; and Takeuchi, R.; Hoshijima, H.; Onuki, N.; Nagasaka, H.; Chowdhury, S. A.; Kawase, M.; Sakagami, H. Anticancer Res. 2005, 25, 4037-4042). In brief, the malignant cells were obtained from Professor Nagumo, Showa University, Japan. The HGF, HPC and HPLF cells were prepared from human periodontal tissue after obtaining informed consent according to the guidelines of Meikai University Ethics Committee, Japan (No. 0206). Since normal cells have a short lifespan, cells at the 3-7 population doubling time were used. With the exception of the HL-60 neoplasm, the cells were cultured in DMEM containing heat-inactivated FBS (10%) at 37° C. in a humidified carbon dioxide atmosphere and subcultured by trypsinization. The HL-60 cells were cultured in a similar fashion except that RPMI 1640 media was employed.

For data set [7], the system named is human squamous cell carcinomas HSC-4. The data set can be described thus: Cytotoxicity CC50, MTT assay, HSC-4. The conditions noted are these: Homo sapiens, HSC-4, 24 h, read-out: CC50(μM) HSC-4. A digest of the protocol: as §1
Data set [8] in a line: in vitro. The conditions noted are these: human. The source holds these as a separate data set.
Data set [9] relates to COLO 205. The data set can be described thus: Human tumour cell line panel, colon cancer COLO 205. In kind it is cell-based. The conditions noted are these: Homo sapiens, COLO 205, 48 h; read-out: Colon cancer cells, IC50(μM) COLO 205. The protocol:
(§2) In addition, both 5-fluorouracil and melphalan were evaluated towards 57 cell lines. […] MG MID is the average of the potencies of the compound to approximately 50 neoplastic cell lines.

Data set [10] concerns RPMI 8226. Nature of the data set: Human tumour cell line panel, leukemic RPMI 8226. In kind it is cell-based. The conditions noted are these: Homo sapiens, RPMI-8226, 48 h; read-out: Leukemic cells, IC50(μM) RPMI 8226. On the procedure: as §2
The test system of data set [11] is HCT 15. The data set can be described thus: Human tumour cell line panel, colon cancer HCT 15. The format is cell-based. The conditions noted are these: Homo sapiens, HCT-15, 48 h; read-out: Colon cancer cells, IC50(μM) HCT 15. The protocol: as §2
For data set [12], the system named is human tumour cell lines. Nature of the data set: Panel of human tumour cell lines, all cell lines (mean graph midpoint). The format is cell-based. A digest of the protocol:
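Compounds tested against about 49 human cancer cell lines covering leukemia, melanoma, lung, colon, CNS, ovarian, renal, prostate and breast tumours. MG MID is the average potency across the approximately 50 lines.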

Data set [13] has as its system SR. Nature of the data set: Human tumour cell line panel, leukemic SR. In kind it is cell-based. The conditions noted are these: Homo sapiens, SR, 48 h; read-out: Leukemic cells, IC50(μM) SR. The protocol: as §2
The test system of data set [14] is K 562. Nature of the data set: Human tumour cell line panel, leukemic K 562. In kind it is cell-based. The conditions noted are these: Homo sapiens, K562, 48 h; read-out: Leukemic cells, IC50(μM) K 562. The protocol:
as §2

The test system of data set [15] is SW 620. Nature of the data set: Human tumour cell line panel, colon cancer SW 620. The conditions noted are these: Homo sapiens, SW-620, 48 h; read-out: Colon cancer cells, IC50(μM) SW 620. In kind it is cell-based. The protocol: as §2
Data set [16] has as its system KM 12. Nature of the data set: Human tumour cell line panel, colon cancer KM 12. In kind it is cell-based. The conditions noted are these: Homo sapiens, KM12, 48 h; read-out: Colon cancer cells, IC50(μM) KM 12. The protocol:
as §2

The subject of data set [17] is HCC 2998. The data set can be described thus: Human tumour cell line panel, colon cancer HCC 2998. In kind it is cell-based. The conditions noted are these: Homo sapiens, HCC 2998, 48 h; read-out: Colon cancer cells, IC50(μM) HCC 2998. The protocol:
as §2

Data set [18] concerns HCT 116. Nature of the data set: Human tumour cell line panel, colon cancer HCT 116. In kind it is cell-based. The conditions noted are these: Homo sapiens, HCT-116, 48 h; read-out: Colon cancer cells, IC50(μM) HCT 116. The protocol:
as §2

Data set [19] relates to HL 60. Nature of the data set: Human tumour cell line panel, leukemic HL 60. In kind it is cell-based. The conditions noted are these: Homo sapiens, HL-60, 48 h; read-out: Leukemic cells, IC50(μM) HL 60. The protocol: as §2
The test system of data set [20] is mice. The conditions noted are these: five consecutive daily doses of 240 mg/kg; cited from earlier work.
The test system of data set [21] is synthetic DNA, poly(d(AT)). The conditions noted are these: cited from earlier work.
In data set [22] the test system is murine lymphocytic leukemia P388/MRI cell line. The conditions noted are these: cited from earlier work.

Structures are written as SMILES.

As to `CCN(CC)CCOc1ccc(C(=O)O)cc1.Cl`, the melting point (in general, the temperature of the solid-liquid transition) is 170 to 172 °C.

The molecule `O=C1C(=Cc2ccccc2)CN(C(=O)c2ccccc2)CC1=Cc1ccccc1` [Compound 2a, 1-Benzoyl-3,5-bis(phenylmethylene)-4-piperidone] gave a melting point of 165 to 166 °C.

`COc1ccc(C(=O)N2CC(=Cc3ccccc3)C(=O)C(=Cc3ccccc3)C2)cc1` [Compound 2b, 1-(4-Methoxybenzoyl)-3,5-bis(phenylmethylene)-4-piperidone] yielded a melting point of 177 to 178 °C.

Consider `CCN(CC)CCOc1ccc(C(=O)N2CC(=Cc3ccc(Cl)cc3)C(=O)C(=Cc3ccc(Cl)cc3)C2)cc1.Cl` [Compound 4b, 3,5-bis(4-Chlorophenylmethylene)-1-[4-(2-diethylaminoethoxy)phenylcarbonyl]-4-piperidone hydrochloride], for which the CC50 at 24 h in [1] was greater than 400 µM; in [4], greater than 400 µM; in data set [8], 230 µM. The “FAR value 4 μg/ml” value in data set [2] came out at 118. Further, the “FAR value 40 μg/ml” value in [2] amounted to 99.7. Further, the CC50 in [3] came to 160 µM; in [5], 46 µM; in [7], 34 µM. In addition, the “SI (selectivity index)” value in [6] was greater than 4.3.

Turning to `CCN(CC)CCOc1ccc(C(=O)N2CC(=Cc3ccc(C)cc3)C(=O)C(=Cc3ccc(C)cc3)C2)cc1.Cl` [Compound 4d, 1-[4-(2-Diethylaminoethoxy)phenylcarbonyl]-3,5-bis(4-methylphenylmethylene)-4-piperidone hydrochloride], the “FAR value 4 μg/ml” value in data set [2] was 106. In data set [2], the “FAR value 40 μg/ml” value is reported as 66.6. Besides, the results for the CC50 in data set [3], in [5] and in [7] were 2.2 µM, 0.79 µM and 2.3 µM, respectively. Moreover, in data set [6], the “SI (selectivity index)” value stood at 3.3.

On to `Cl.O=C1C(=Cc2ccc(Cl)cc2)CN(C(=O)c2ccc(OCCN3CCCCC3)cc2)CC1=Cc1ccc(Cl)cc1` [Compound 5b, 3,5-bis(4-Chlorophenylmethylene)-1-[4-{2-(1-piperidinyl)ethoxy}phenylcarbonyl]-4-piperidone hydrochloride], for which the IC50 (as a rule, the concentration that gives 50% inhibition) in [9] was 15.8 µM; in data set [10], 0.759 µM; in data set [11], 49 µM; in data set [12] (mean graph midpoint, average of 49 (38-59) human tumour cell lines, 48 h incubation, read-out: All cell lines IC50) it was greater than 11.5 µM; in data set [13] it was 2.29 µM; in data set [14], 4.37 µM. The IC50 in data set [15] was found to be 3.55 µM; in data set [16] it was 19.1 µM; in data set [17], 1.58 µM; in [18], 47.9 µM; in data set [19], 20.4 µM. The results for the CC50 at 24 h in data set [1], in [4] and in data set [8] were 340 µM, greater than 400 µM and greater than 400 µM, respectively. Moreover, the “FAR value 4 μg/ml” value in data set [2] stood at 157. Further, in [2], the “FAR value 40 μg/ml” value was found to be 133. Moreover, the “S.I. (selectivity index)” value in data set [12] (ratio of the IC50 figures for the least and most sensitive cell lines) is listed as greater than 66.1. Also, the results for the CC50 in data set [3], in data set [5] and in data set [7] were 110 µM, 63 µM and 48 µM, respectively. The “SI (selectivity index)” value in [6] is on record as greater than 5.2.

As for `O=C1C(=Cc2ccccc2)CNCC1=Cc1ccccc1` [Compound B1], the Fatalities in mice result in [20] is recorded as “did not induce fatalities”. Besides, the “Binding to poly(d(AT))” value in [21] is reported as “does bind”. The Cytotoxic activity entry in data set [22] is “possesses cytotoxic activity”.
